Measured values as given in US20140105919A1, “SYNERGISTIC INHIBITION OF ERBB2/ERBB3 SIGNAL PATHWAYS IN THE TREATMENT OF CANCER” (Institute for Cancer Research d/b/a The Research Institute …, priority 2011, published 2014).

Experiments:
Assay type in all cases: cell-based
BT474 cells = assay: Cell sensitization to MM-111 and gamma-secretase inhibitor, CellTiter-Blue viability; details: BT474, 72 hrs; Compound E 1 μM, MM-111 2 μM, alone or combined; vs DMSO
Description: Inhibition of the Notch pathway was carried out with a compound. Breast cancer cells (BT474 cells) were plated in 96-well plates in DMEM/F12 media with 1% FBS and incubated in a humidified CO2 incubator at 37° C. for 24 hours prior to drug treatment. The media was replaced with DMEM/F12 media with 1% FBS containing DMSO, 1 μM Compound E (Santa Cruz, SC-221433), 2 μM MM-111 (Merrimack Pharmaceuticals), or combined Compound E and MM-111. Cells were incubated in the presence of drug for 72 hrs. CellTiter-Blue® (Promega) was used to measure cell viability according to the standard protocol. The total incubation time in the presence of CellTiter-Blue® was 4 hours, and fluorescence was measured using a Perkin Elmer Envision Plate Reader.

[1] = test system: Notch signaling (CBF1 reporter) in BT-474 cells; assay: Notch-dependent activation of CBF-1 reporter (Dual-Luciferase Assay); details: MM-111 and Compound E
Description: BT-474 cells were co-transfected with CBF1::firefly luciferase and pRL-TK (renilla luciferase) as an internal control for transfection efficiency. Cells were then treated with MM-111, MM-111 and Compound E, or Rituximab (control antibody), and the ratio of firefly/renilla expression was measured using the Dual-Luciferase Assay (Promega) according to the manufacturer's instructions.

[2] = test system: Notch target genes in MB-361/DYT2 cells; assay: Real time PCR of endogenous Notch target genes HES1, HES5, HEY1; details: MB361/DYT2; compared to untreated, DMSO or Rituximab
Description: MB-361/DYT2 cells were left untreated (NT) or treated with DMSO (vehicle for Compound E), rituximab (control antibody), Compound E, MM-111, or MM-111 and Compound E. Total RNA was extracted from cells using the RNeasy kit (Qiagen). Total RNA was reverse transcribed to cDNA, and real time PCR was performed, using ABI primer/probe sets, on cDNAs to detect relative expression of the validated Notch target genes HES1 (ABI Assay ID Hs00172878_m1), HES5 (ABI Assay ID Hs01387463_g1), or HEY1 (ABI Assay ID Hs01114113_m1).

[3] = test system: MB361/DYT2 breast cancer cells; assay: secondary validation screen with single siGENOME siRNAs with or without MM-111, CellTiter-Blue viability; set-up: Vehicle (viability score) / Drug (viability score): scale not given here; details: for Ratio (drug:vehicle viability): single siRNA; for Drug (viability score): single siRNA and MM-111; for Vehicle (viability score): single siRNA only (vehicle)
Description: Subsets of targets that met criteria of being expressed in the cells and having an FDR of <5% or being expressed in the cells, having an FDR <20%, and having a known connection to ErbB signaling, were validated in a secondary screen in which MB361/DYT2 breast cancer cells were treated with siRNA molecules from the Dharmacon® siGENOME library (Dharmacon, Inc.). Parallel cells were treated with the siRNA only (vehicle) or both the siRNA and the ErbB2/ErbB3 bispecific antibody MM-111, and sensitization of the cells was measured by the CellTiter-Blue® (Promega) viability assay.

Row | Compound | cell viability / cell killing (BT474 cells) | MM-111-induced CBF1 reporter activity [1] | expression of Notch target genes HES1, HES5, and HEY1 [2] | Ratio (drug:vehicle viability) [3] | Drug (viability score) [3] | Vehicle (viability score) [3]
1 | C[C@H](NC(=O)Cc1cc(F)cc(F)c1)C(=O)N[C@H]1N=C(c2ccccc2)c2ccccc2N(C)C1=O [Compound E] | no effect on viability | the activity is blocked | reduced | – | – | –
2 | CAUAAGCCCUGCAAGAAUG (listed as RNA, chemistry not given here; listed as Homo sapiens) [SEQ ID NO: 17, Dharmacon siGENOME siRNA targeting DLL1] | – | – | – | 0.823 | 0.812 | 0.987
3 | CCAAAGGCCUGACCGUUAA (listed as RNA, chemistry not given here; listed as Homo sapiens) [SEQ ID NO: 26, Dharmacon siGENOME siRNA targeting AAMP] | – | – | – | 0.844 | 0.821 | 0.973
4 | CCACACGGUUUAAGUCUAU (listed as RNA, chemistry not given here; listed as Homo sapiens) [SEQ ID NO: 50, Dharmacon siGENOME siRNA targeting RFNG] | – | – | – | 0.939 | 1.250 | 1.331
5 | GAAGAUACUUGGCACUAUU (listed as RNA, chemistry not given here; listed as Homo sapiens) [SEQ ID NO: 21, Dharmacon siGENOME siRNA targeting SC4MOL] | – | – | – | 0.877 | 0.955 | 1.089
6 | GCAGCAAGACCAAGAAAUC (listed as RNA, chemistry not given here; listed as Homo sapiens) [SEQ ID NO: 57, Dharmacon siGENOME siRNA targeting CYR61] | – | – | – | 0.856 | 0.846 | 0.988
7 | GGGUCGCUGUGAUGAAAUU (listed as RNA, chemistry not given here; listed as Homo sapiens) [SEQ ID NO: 45, Dharmacon siGENOME siRNA targeting DCI] | – | – | – | 0.762 | 0.627 | 0.823
8 | GGUGUUGUCUGGUCAGUAA (listed as RNA, chemistry not given here; listed as Homo sapiens) [SEQ ID NO: 19, Dharmacon siGENOME siRNA targeting NLK] | – | – | – | 0.776 | 0.991 | 0.993
9 | GGUUGUGCCUGGAGGUGGA (listed as RNA, chemistry not given here; listed as Homo sapiens) [SEQ ID NO: 24, Dharmacon siGENOME siRNA targeting TPT1] | – | – | – | 0.845 | 0.775 | –
